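Where inhibition never reached the appropriate level, the endpoint shown equals the highest concentration tested. Otherwise, values were interpolated linearly from a five-concentration, 48-hour dose response in 96-well plates. Definition used: TGI = concentration required for complete inhibition of growth.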
Assays:
Assay in all cases: NCI tumour cell line growth inhibition, 48 h
[1] = test system: 786-0 renal
[2] = test system: A498 renal
[3] = test system: A549 NSCLC
[4] = test system: ACHN renal
[5] = test system: BT-549 breast
[6] = test system: CAKI-1 renal
[7] = test system: CCRF-CEM leukemia
[8] = test system: COLO 205 colon
[9] = test system: DU-145 prostate
[10] = test system: EKVX NSCLC
[11] = test system: HCC-2998 colon
[12] = test system: HCT-116 colon
[13] = test system: HCT-15 colon
[14] = test system: HL-60(TB) leukemia
[15] = test system: HOP-92 NSCLC
[16] = test system: HS 578T breast
[17] = test system: HT29 colon
[18] = test system: IGROV1 ovarian
[19] = test system: K-562 leukemia
[20] = test system: KM12 colon
[21] = test system: LOX IMVI melanoma
[22] = test system: M14 melanoma
[23] = test system: MALME-3M melanoma
[24] = test system: MCF7 breast
[25] = test system: MDA-MB-435
[26] = test system: MDA-N
[27] = test system: MOLT-4 leukemia
[28] = test system: NCI-H23 lung
[29] = test system: NCI-H460 lung
[30] = test system: NCI-H522 lung
[31] = test system: NCI/ADR-RES ovarian
[32] = test system: OVCAR-3 ovarian
[33] = test system: OVCAR-4 ovarian
[34] = test system: OVCAR-5 ovarian
[35] = test system: OVCAR-8 ovarian
[36] = test system: PC-3 prostate
[37] = test system: RPMI-8226 leukemia
[38] = test system: RXF 393 renal
[39] = test system: SF-268 CNS
[40] = test system: SF-295 CNS
[41] = test system: SF-539 CNS
[42] = test system: SK-MEL-2 melanoma
[43] = test system: SK-MEL-28 melanoma
[44] = test system: SK-MEL-5 melanoma
[45] = test system: SN12C renal
[46] = test system: SNB-19 CNS
[47] = test system: SNB-75 CNS
[48] = test system: SR leukemia
[49] = test system: SW-620 colon
[50] = test system: T-47D breast
[51] = test system: UACC-257 melanoma
[52] = test system: UACC-62 melanoma
[53] = test system: UO-31 renal
[54] = test system: HOP-62 NSCLC
[55] = test system: NCI-H226 lung
[56] = test system: SK-OV-3 ovarian
[57] = test system: TK-10 renal
[58] = test system: U251 CNS

Measured: TGI

CCC(=O)Nc1cccc(NC(=O)c2c(Cl)c(Cl)c(Cl)c(Cl)c2-c2nc3ccccc3[nH]2)c1
66.5 µM: [15]
not listed: [54] | [55] | [56] | [57] | [58]
> 100 µM: all other assays above

O=C1CC(=O)c2c(N3CCCC3)sc(N3CCCC3)c21
> 100 µM: all assays above
